Laboratory results reported in PubChem BioAssay (NCI).
“And” between values parts separate entries of the source, which are not always exact repeats. Equal entries are not always repeated.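 Exposure lasted 48 hours, with cells grown in 96-well plates and compounds tested at five concentrations. GI50: concentration for 50% inhibition of growth. Definition used: TGI = concentration required for complete inhibition of growth.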

What was measured:
Assay in all cases: NCI anticancer screen, dose series, 48 h
MOLT-4 leukemia = tested on: MOLT-4 leukemia
UO-31 renal = tested on: UO-31 renal
HT29 colon = tested on: HT29 colon
SN12C renal = tested on: SN12C renal
HOP-62 NSCLC = tested on: HOP-62 NSCLC
K-562 leukemia = tested on: K-562 leukemia
MALME-3M melanoma = tested on: MALME-3M melanoma
DU-145 prostate = tested on: DU-145 prostate
OVCAR-5 ovarian = tested on: OVCAR-5 ovarian
UACC-257 melanoma = tested on: UACC-257 melanoma

Compound | GI50 (MOLT-4 leukemia) | TGI (MOLT-4 leukemia) | GI50 (UO-31 renal) | TGI (UO-31 renal) | GI50 (HT29 colon) | TGI (HT29 colon) | GI50 (SN12C renal) | TGI (SN12C renal) | GI50 (HOP-62 NSCLC) | TGI (HOP-62 NSCLC) | GI50 (K-562 leukemia) | TGI (K-562 leukemia) | GI50 (MALME-3M melanoma) | TGI (MALME-3M melanoma) | GI50 (DU-145 prostate) | TGI (DU-145 prostate) | GI50 (OVCAR-5 ovarian) | TGI (OVCAR-5 ovarian) | GI50 (UACC-257 melanoma) | TGI (UACC-257 melanoma)
COC(=O)c1cc(Nc2ccc(O)c3c2C(=O)c2c([N+](=O)[O-])ccc(O)c2C3=O)cc(C(=O)OC)c1 | 6.37 µM | > 100 µM | 16.5 µM | > 100 µM | 8.21 µM | > 100 µM | 21.4 µM | > 100 µM | 4.04 µM | > 100 µM | 27.2 µM | > 100 µM | 2.75 µM | 6.39 µM | 1.75 µM | 3.51 µM | 26 µM | > 100 µM | 3.23 µM | > 100 µM
Cc1cc(CS(=O)(=O)/C=C/c2ccccc2[N+](=O)[O-])c(CS(=O)(=O)/C=C/c2ccccc2[N+](=O)[O-])cc1C |  | > 100 µM |  | > 100 µM |  | > 100 µM |  | > 100 µM |  | 49.4 µM |  | > 100 µM |  | > 100 µM |  | > 100 µM |  | > 100 µM |  | > 100 µM
C/C(=C(/c1ccc(O)cc1)c1ccc(OCCN2CCCC2)cc1)c1ccccc1 | 2.94 µM | 11 µM | 1.87 µM | 5.72 µM | 1.35 µM | 3.2 µM | 9.17 µM | 25.7 µM | 2.1 µM | 4.54 µM | 1.81 µM | 4.77 µM | 1.7 µM | 3.41 µM | 9.72 µM | 21.4 µM | 7.99 µM | 22.5 µM | 2.03 µM | 3.93 µM
CC1(CC(=O)O)OC2CCCCCC2O1 (configuration not stated) (tested in a mixture with another compound) |  | > 100 µM |  | > 100 µM |  | > 100 µM |  | > 100 µM |  | > 100 µM |  | > 100 µM |  | > 100 µM |  | > 100 µM |  | > 100 µM |  | > 100 µM
COc1ccccc1C(=O)c1cnc(NC2CCN(S(C)(=O)=O)CC2)nc1N | 6.43 µM | > 25 µM | 7.43 µM | > 25 µM | 6.27 µM | > 25 µM | 5.48 µM | > 25 µM | 7.73 µM | > 25 µM | > 25 µM | > 25 µM | > 16.4 µM | > 25 µM | 6.51 µM | > 25 µM | 4.92 µM | > 25 µM | 11.6 µM | > 25 µM
COc1ccc2nc3ccc(OC)cc3c(SCCCN)c2c1 | 2.2 µM | 6.34 µM | 3.91 µM | 18.3 µM | 1.91 µM | 4.07 µM | 10.8 µM | 25.5 µM | 20.3 µM | 45.8 µM | 1.67 µM | 3.89 µM | 1.6 µM | 10.5 µM | 1.81 µM | 3.26 µM | 13.5 µM | 28.3 µM | 15.6 µM | 29.8 µM
COc1cc(C(c2cc3c(cc2O)OCO3)N2CCCC2)cc(OC)c1OC (configuration not stated) |  | 20.7 µM |  | 28.1 µM |  | 28 µM |  | 45.9 µM |  | 97.5 µM |  | 21.1 µM |  | 20.7 µM |  | 36 µM |  | 89.7 µM |  | 36.6 µM
O=C1c2c(O)cccc2C(C(=O)CCCCC(=O)C2c3cccc(O)c3C(=O)c3c(O)cccc32)c2cccc(O)c21 | 1.8 µM | 5.42 µM and 9.97 µM | 1.11 µM | 1.01 µM and 2.38 µM | 1.77 µM | 1.67 µM and 5.67 µM | 3.31 µM | 3.89 µM and 9.64 µM | 1.05 µM | 1.66 µM and 2.52 µM | 1.21 µM | 7.66 µM and 2.49 µM |  | 4.38 µM and 2.92 µM |  | 1.81 µM | 0.961 µM | 1.22 µM and 1.85 µM | 1.38 µM | 1.34 µM and 2.96 µM
CC1(C)N=C(N)N=C(N)N1c1ccc(OCC(=O)Nc2cccc(S(=O)(=O)F)c2)c(Cl)c1 |  | > 100 µM |  | > 100 µM |  | > 100 µM |  | > 100 µM |  | > 79.7 µM |  | > 100 µM |  | > 19.9 µM |  | > 100 µM |  | > 100 µM |  | > 14.2 µM
CC(CC(=O)O)(CC(=O)O)C(=O)O |  | > 100 µM |  | > 100 µM |  | > 100 µM |  | > 100 µM |  | > 100 µM |  | > 100 µM |  | > 100 µM |  | > 100 µM |  | > 100 µM |  | > 100 µM
CCN(CC)CCC(=O)Nc1ccc(Cn2nnc3c2C(=O)c2nnn(Cc4ccc(NC(=O)CCN(CC)CC)cc4)c2C3=O)cc1 | 0.242 µM | 0.628 µM | > 41.1 µM | > 61.8 µM | 0.304 µM | 0.787 µM | 0.184 µM | 0.385 µM | 1.75 µM | 3.42 µM | 0.669 µM | > 37.9 µM | 0.137 µM | 0.294 µM | 1.05 µM | 2.25 µM | 0.994 µM | 3.34 µM | 1.01 µM | 2.79 µM
C[C@@H](NC(=O)Cc1cc(F)cc(F)c1)C(=O)N[C@@]1(C)N=C(c2ccccc2)c2ccccc2N(C)C1=O | 11.7 µM | 50.1 µM | 30.5 µM | > 100 µM | 49.4 µM | > 100 µM | 32 µM | 97.5 µM | 64.7 µM | > 100 µM | 32.6 µM | > 94.1 µM | > 60.8 µM | > 100 µM | 30.2 µM | > 100 µM | > 83.5 µM | > 100 µM | 37.5 µM | > 100 µM
CN1CCCC1c1cccnc1.O=C(O)c1ccccc1O.O=C([O-])c1ccccc1[OH2+].O=C([O-])c1ccccc1[OH2+].O=C([O-])c1ccccc1[OH2+].[Mn+2] (configuration not stated) | 19.9 µM | > 100 µM | > 100 µM | > 100 µM | > 100 µM | > 100 µM | > 100 µM | > 100 µM | > 100 µM | > 100 µM | > 100 µM | > 100 µM | 17.8 µM | 52.2 µM | > 100 µM | > 100 µM | 63.5 µM | > 100 µM | 37.6 µM | > 100 µM
O=c1oc(-c2ccc(O)c(O)c2)cc2cc(O)cc(O)c12 | 22.4 µM | > 100 µM | 18.5 µM | > 100 µM | 71.5 µM | > 100 µM | 43 µM | > 100 µM | 33 µM | 90.4 µM | 41.6 µM | > 100 µM | 57.5 µM | > 100 µM | 32.4 µM | > 100 µM | 36.7 µM | > 100 µM | 38 µM | > 100 µM
Cc1ccc(C2=Nc3c(N)ncnc3NC(c3cccc(Nc4ccnc5cc(C(F)(F)F)ccc45)c3)C2)cc1 (configuration not stated) | 3.4 µM | > 100 µM | 2.79 µM | 22.8 µM | 2.45 µM | 7.29 µM | 4.77 µM | > 100 µM | 5.38 µM | 52.1 µM | 3.44 µM | > 100 µM | 3 µM | 23.1 µM | 6.83 µM | > 100 µM | 4.96 µM | > 100 µM | 10.2 µM | 84.9 µM
N#CC1c2ccccc2-c2ccccc2N1C(=O)c1ccccc1 (configuration not stated) | 1.73 µM | > 100 µM | 3.63 µM | > 59.4 µM | 1.1 µM | > 25.3 µM | 3.86 µM | > 92.2 µM | 4.46 µM | > 100 µM | 1.04 µM |  | 1.22 µM | 54.2 µM | 1.72 µM | 4.21 µM | 5.37 µM | > 100 µM | 5.32 µM | > 54.5 µM
